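Grown in 96-well plates, cells were treated for 48 hours with each compound at five concentrations. Insufficient inhibition: endpoint recorded as highest concentration tested. TGI: total growth inhibition.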
Legend:
Assay in all cases: inhibition of tumour cell growth, NCI panel, 48 h
[1] = system: OVCAR-4 ovarian
[2] = system: 786-0 renal
[3] = system: HOP-92 NSCLC
[4] = system: BT-549 breast
[5] = system: OVCAR-8 ovarian
[6] = system: A498 renal
[7] = system: NCI-H460 lung
[8] = system: HT29 colon
[9] = system: KM12 colon
[10] = system: IGROV1 ovarian
[11] = system: DU-145 prostate
[12] = system: UACC-62 melanoma
[13] = system: U251 CNS
[14] = system: OVCAR-5 ovarian
[15] = system: EKVX NSCLC
[16] = system: HOP-62 NSCLC
[17] = system: LOX IMVI melanoma
[18] = system: MDA-N
[19] = system: UACC-257 melanoma
[20] = system: RPMI-8226 leukemia
[21] = system: SNB-19 CNS
[22] = system: MDA-MB-435
[23] = system: CCRF-CEM leukemia
[24] = system: SK-MEL-28 melanoma
[25] = system: SK-MEL-2 melanoma
[26] = system: SNB-75 CNS
[27] = system: NCI/ADR-RES ovarian
[28] = system: NCI-H522 lung
[29] = system: SK-OV-3 ovarian
[30] = system: NCI-H226 lung
[31] = system: K-562 leukemia
[32] = system: MALME-3M melanoma
[33] = system: SF-539 CNS
[34] = system: HS 578T breast
[35] = system: MOLT-4 leukemia
[36] = system: RXF 393 renal
[37] = system: OVCAR-3 ovarian
[38] = system: MDA-MB-231 breast
[39] = system: A549 NSCLC
[40] = system: T-47D breast
[41] = system: NCI-H23 lung
[42] = system: HCT-15 colon
[43] = system: SR leukemia
[44] = system: SF-295 CNS
[45] = system: SK-MEL-5 melanoma
[46] = system: ACHN renal
[47] = system: CAKI-1 renal
[48] = system: UO-31 renal
[49] = system: SW-620 colon
[50] = system: PC-3 prostate
[51] = system: COLO 205 colon
[52] = system: M14 melanoma
[53] = system: HL-60(TB) leukemia
[54] = system: TK-10 renal
[55] = system: SF-268 CNS
[56] = system: SN12C renal
[57] = system: MCF7 breast
[58] = system: HCT-116 colon
[59] = system: HCC-2998 colon
[60] = system: DMS 273 small cell lung
[61] = system: DLD-1 colon
[62] = system: M19-MEL melanoma
[63] = system: SNB-78 CNS
[64] = system: LXFL 529 NSCLC
[65] = system: DMS 114 small cell lung
[66] = system: KM20L2 colon
[67] = system: XF 498 CNS

## CC(C)(C)c1cc(C(=O)C2Cc3ccccc3C(=O)O2)cc(C(C)(C)C)c1O (configuration not stated)
[1]
  TGI: 65.7 µM
[2]
  TGI: 24.8 µM
[3]
  TGI: 45.3 µM
[4]
  TGI: 42.6 µM
[5]
  TGI: 33.3 µM
[6]
  TGI: 26.7 µM
[7]
  TGI: 23.1 µM
[8]
  TGI: 35.5 µM
[9]
  TGI: 32.1 µM
[10]
  TGI: 32.6 µM
[11]
  TGI: 28.3 µM
[12]
  TGI: 26.3 µM
[13]
  TGI: 22.2 µM
[14]
  TGI: 31.8 µM
[15]
  TGI: 25.9 µM
[16]
  TGI: 30.8 µM
[17]
  TGI: 26.5 µM
[18]
  TGI: 23.9 µM
[19]
  TGI: 23.9 µM
[20]
  TGI: 42.1 µM
[21]
  TGI: 24.7 µM
[22]
  TGI: 32.6 µM
[23]
  TGI: 34.7 µM
[24]
  TGI: 36.8 µM
[25]
  TGI: 23.9 µM
[26]
  TGI: 33.8 µM
[27]
  TGI: 50.5 µM
[28]
  TGI: 27.8 µM
[29]
  TGI: 56.3 µM
[30]
  TGI: 35.5 µM
[31]
  TGI: > 100 µM
[32]
  TGI: 29.6 µM
[33]
  TGI: 31.7 µM
[34]
  TGI: > 100 µM
[35]
  TGI: > 100 µM
[36]
  TGI: 27.7 µM
[37]
  TGI: 25.5 µM
[38]
  TGI: 31.7 µM
[39]
  TGI: 54.4 µM
[40]
  TGI: > 100 µM
[41]
  TGI: 35.8 µM
[42]
  TGI: 37 µM
[43]
  TGI: 51.2 µM
[44]
  TGI: 35.1 µM
[45]
  TGI: 25.1 µM
[46]
  TGI: 40.3 µM
[47]
  TGI: 52.5 µM
[48]
  TGI: 23.2 µM
[49]
  TGI: 50.4 µM
[50]
  TGI: 28.2 µM
[51]
  TGI: 33.1 µM
[52]
  TGI: 25.6 µM
[53]
  TGI: 35 µM
[54]
  TGI: 28.6 µM
[55]
  TGI: 40.6 µM
[56]
  TGI: 26.5 µM
[57]
  TGI: 38.6 µM
[58]
  TGI: 21.9 µM

## Oc1cc(Cl)cc2cc(Cl)cnc12
[1]
  TGI: > 100 µM
[2]
  TGI: > 100 µM
[3]
  TGI: 74.1 µM
[4]
  TGI: > 100 µM
[5]
  TGI: > 100 µM
[6]
  TGI: 34.5 µM
[7]
  TGI: 14 µM
[8]
  TGI: > 100 µM
[9]
  TGI: > 100 µM
[10]
  TGI: 22.6 µM
[11]
  TGI: > 100 µM
[12]
  TGI: 7.81 µM
[13]
  TGI: > 100 µM
[14]
  TGI: > 100 µM
[15]
  TGI: 10.6 µM
[16]
  TGI: 89.9 µM
[17]
  TGI: 13.1 µM
[18]
  TGI: > 100 µM
[19]
  TGI: > 100 µM
[20]
  TGI: 12.2 µM
[21]
  TGI: > 100 µM
[22]
  TGI: > 100 µM
[23]
  TGI: 6.37 µM
[24]
  TGI: > 100 µM
[26]
  TGI: 94 µM
[27]
  TGI: 6.67 µM
[28]
  TGI: 24.3 µM
[29]
  TGI: > 100 µM
[30]
  TGI: 92.2 µM
[31]
  TGI: 10.6 µM
[32]
  TGI: 34.9 µM
[33]
  TGI: > 100 µM
[34]
  TGI: > 100 µM
[35]
  TGI: 11.5 µM
[36]
  TGI: 48.2 µM
[37]
  TGI: 5.43 µM
[38]
  TGI: 77.2 µM
[39]
  TGI: > 100 µM
[40]
  TGI: 9.95 µM
[41]
  TGI: 24.4 µM
[42]
  TGI: 27.3 µM
[43]
  TGI: 13.6 µM
[44]
  TGI: 88.7 µM
[45]
  TGI: 53.3 µM
[46]
  TGI: 21.3 µM
[47]
  TGI: 57.7 µM
[48]
  TGI: 20.5 µM
[49]
  TGI: > 100 µM
[50]
  TGI: > 100 µM
[51]
  TGI: > 100 µM
[52]
  TGI: > 100 µM
[53]
  TGI: 0.902 µM
[54]
  TGI: 76.2 µM
[55]
  TGI: > 100 µM
[56]
  TGI: > 100 µM
[57]
  TGI: 54.6 µM
[59]
  TGI: 65.9 µM
[58]
  TGI: > 100 µM

## CCN(CCCl)CCCCCNc1c2ccccc2nc2ccc(OC)cc12
[1]
  TGI: 3.42 µM
[2]
  TGI: 1.63 µM
[3]
  TGI: 3.21 µM
[5]
  TGI: 1.96 µM
[6]
  TGI: 3.52 µM
[7]
  TGI: 1.51 µM
[8]
  TGI: 2.94 µM
[9]
  TGI: 1.81 µM
[10]
  TGI: 4.24 µM
[12]
  TGI: 1.8 µM
[13]
  TGI: 2.23 µM
[14]
  TGI: 5.39 µM
[15]
  TGI: 18.1 µM
[16]
  TGI: 8.38 µM
[17]
  TGI: 1.09 µM
[60]
  TGI: 1.78 µM
[19]
  TGI: 10.8 µM
[20]
  TGI: 1.47 µM
[61]
  TGI: 2.95 µM
[21]
  TGI: 3.78 µM
[23]
  TGI: 2.78 µM
[24]
  TGI: 12.1 µM
[25]
  TGI: 2.7 µM
[62]
  TGI: 2.15 µM
[63]
  TGI: 8.57 µM
[26]
  TGI: 3.02 µM
[28]
  TGI: 2.03 µM
[29]
  TGI: 3.62 µM
[64]
  TGI: 1.93 µM
[30]
  TGI: 2.3 µM
[31]
  TGI: 1.06 µM
[32]
  TGI: 5.93 µM
[33]
  TGI: 2.65 µM
[35]
  TGI: 0.279 µM
[65]
  TGI: 1.91 µM
[36]
  TGI: 2.4 µM
[37]
  TGI: 7.28 µM
[39]
  TGI: 4.4 µM
[41]
  TGI: 1.55 µM
[42]
  TGI: 10.9 µM
[44]
  TGI: 9.68 µM
[45]
  TGI: 2.69 µM
[66]
  TGI: 4.38 µM
[46]
  TGI: 3.09 µM
[47]
  TGI: 16.7 µM
[67]
  TGI: 1.36 µM
[48]
  TGI: 12.7 µM
[49]
  TGI: 1.63 µM
[51]
  TGI: 3.03 µM
[52]
  TGI: 9.74 µM
[53]
  TGI: 0.266 µM
[54]
  TGI: 44.3 µM
[55]
  TGI: 5.98 µM
[56]
  TGI: 1.78 µM
[59]
  TGI: 2.94 µM
[58]
  TGI: 1.43 µM

Reference: PubChem BioAssay (NCI)
